Data from US20110034496A1, “POST-HARVEST TREATMENT” (Bayer CropScience AG, priority 2007, published 2011).

Tests used:
[1] = system: Penicillium expansum; assay: Apples dipped in fungicidal solution, then inoculated with Penicillium expansum spores at cuticle injuries; type: in vivo; conditions: for % Efficacy [Abbott] at 6 d: 6 d after inoculation; for % Efficacy [Abbott] at 10 d: 10 d after inoculation; for % Efficacy [Abbott] at 15 d: 15 d after inoculation
Procedure: (§1) In Example 1 and Example 2 all compounds except fluopyram were applied as commercially available. 1 weight proportion of fluopyram, however, was mixed with solvents (24.5 w/w acetone, 24.5 w/w dimethylacetamid) and emulsifier (1 w/w), respectively. Afterwards, the product was diluted in water. The concentration used is indicated below. Apples were dipped in a fungicidal solution and kept in plastic boxes for drying. Afterwards 10 μl of a spore solution of Penicillium expansum has been applied to injuries of the cuticle of the fruits. The trial has been assessed at different time intervals after inoculation. The efficacy of the products has been calculated based on the fungal growth of the treated apples with reference to the inoculated untreated control. The efficacy is shown as % Abbott.

[2] = system: Botrytis cinerea; assay: Apples dipped in fungicidal solution, then inoculated with Botrytis cinerea spores at cuticle injuries; type: in vivo; conditions: dip 100 g a.i./1000 ltr
Procedure: as §1, with “Botrytis cinerea” for “Penicillium expansum”, “6d and 10d” for “different time intervals”

[3] = dip 750 g a.i./1000 ltr., Table 1b
[4] = dip 100 g a.i./1000 ltr., Table 1a
[5] = dip 100 g a.i./1000 ltr., Table 1b
[6] = dip 50 g a.i./1000 ltr., Table 1b

Cc1ccc(N(SC(F)(Cl)Cl)S(=O)(=O)N(C)C)cc1 [Tolylfluanid, tolylfluanid]
% Efficacy [Abbott] at 6 d [1, 3]: 64% | % Efficacy [Abbott] at 10 d [1, 3]: 60% | % Efficacy [Abbott] at 15 d [1, 3]: 60%

CC(C)(C)C(O)(CCc1ccc(Cl)cc1)Cn1cncn1 (centres unmarked) [Tebuconazole, tebuconazole]
% Efficacy [Abbott] at 6 d [1, 4]: 100% | % Efficacy [Abbott] at 10 d [1, 4]: 100% | % Efficacy [Abbott] at 14 d ([1]; dip 100 g a.i./1000 ltr., 14 d after inoculation, Table 1a): 100%

O=C(NCCc1ncc(C(F)(F)F)cc1Cl)c1ccccc1C(F)(F)F [Fluopyram, N-{2-[3-chloro-5-(trifluoromethyl)pyridin-2-yl]ethyl}-2-(trifluoromethyl)-benzamide]
% Efficacy [Abbott] at 6 d [1, 5]: 93% | % Efficacy [Abbott] at 10 d [1, 5]: 90% | % Efficacy [Abbott] at 15 d [1, 5]: 70% | % Efficacy [Abbott] at 6 d ([2]; 6 d after inoculation): 98% | % Efficacy [Abbott] at 10 d ([2]; 10 d after inoculation): 96%

CON=C(C(=O)OC)c1ccccc1CON=C(C)c1cccc(C(F)(F)F)c1 [Trifloxystrobin, trifloxystrobin]
% Efficacy [Abbott] at 6 d [1, 6]: 50% | % Efficacy [Abbott] at 10 d [1, 6]: 63% | % Efficacy [Abbott] at 15 d [1, 6]: 52%
